Data set [1] relates to T. cruzi epimastigotes. Description: Activity against Trypanosoma cruzi epimastigotes (Alamar Blue growth inhibition). Format: cell-based, Trypanosoma cruzi (strain CL Brener). The note with it: CL Brener. As for the experimental part:
Trypanocidal activity was assessed by growing parasites in microtiter plates in the presence of various drug concentrations. […] The plates were incubated for 4 days at 28 °C and 20 μL Alamar Blue (Biosource UK Ltd) was then added to each well. After an additional 3 days incubation, the fluorescence was determined using a Gemini fluorescent plate reader (Molecular Devices). Inhibition of growth was calculated by comparison with control values and IC50 and IC90 values were determined in triplicate using linear regression analysis.

In data set [2] the test system is L. infantum promastigotes. The data set can be described thus: Activity against Leishmania infantum promastigotes (resazurin assay). Format: cell-based, Leishmania infantum (MHOM/MA/67/ITMAP-263). The note with it: for IC50: Leishmania infantum, promastigotes, 72 h, 95% CI in brackets. As for the experimental part: Promastigotes from the L. infantum strain (MHOM/MA/67/ITMAP-263) were cultivated in 5 ml of Schneider's insect medium, which was supplemented with 10% heat-inactivated fetal bovine serum (FBS), 200 U ml^−1 of penicillin/streptomycin, 6 μg ml^−1 of phenol red, and 5 mM of HEPES. The cultures were maintained in an incubator at 27 °C and diluted to a concentration of 2 × 10^5 cells per ml every 5 days. For the assays the parasites used were equivalent to late/log with two or three days of culture.
The efficacy of the compounds against L. infantum promastigotes was evaluated using a resazurin-based assay. Parasites were added to 100 μl of serial dilutions of the compounds in supplemented complete medium at a cell density of 5 × 10^5 ml^−1. As a quality control, a dose–response curve with the antileishmanial drug miltefosine was included in all assays. The final volume of each assay was 200 μl per well, and each condition was tested in duplicate. After a 72-hour incubation under specific conditions for each parasite, 20 μl of a 0.5 mM resazurin solution was added, and the plates were incubated for an additional 4 hours under the same conditions. Fluorescence was measured at 544 nm for excitation and 590 nm for emission using a Synergy 2 Multi-Mode Reader (Biotek, Winooski, VT, USA). Results were expressed as the percentage of parasite growth inhibition compared to controls (untreated parasites) and represent the average of at least three independent experiments. The effect was evaluated by determining the IC50 value (the concentration required to inhibit 50% growth), calculated using non-linear regression curves via GraphPad Prism version 8.1.1 for Windows (GraphPad Software, San Diego, CA, USA).
For orientation: Alamar Blue is a resazurin reagent that responds to reducing activity.

The test system of data set [3] is T. cruzi intracellular amastigotes. The data set can be described thus: microbe, parasite or virus in culture. Format: cell-based, Trypanosoma cruzi CL Brener PpyRE9h:mScarlet. Conditions: Trypanosoma cruzi, 120 h; in HeLa cells, 5 days. As for the experimental part: Assays were performed in 96-well black (clear bottom) microtitre plates (Corning Inc.). HeLa ^† cells were seeded at 10^4 per well, incubated for 3 days, and then infected with T. cruzi CL Brener PpyRE9h : mScarlet[25] culture form trypomastigotes (1 : 1 multiplicity of infection). After 16 hours, extracellular parasites were removed by washing in growth medium (×3), test compounds were added, and the plates incubated for 5 days. Fluorescence intensities were then determined using a BMG FLUOstar Omega plate reader (ex 545 nm, em 590 nm), and the data analysed using GraphPad Prism 9.0 software. The values were expressed as IC50/90 ± SD and are the mean of triplicate experiments.

Data set [4] is described as follows: Cytotoxicity on THP-1-derived macrophages (MTT assay). Format: cell-based. The note with it: human, THP-1-derived macrophages (PMA-differentiated), value or interval. As for the experimental part: The THP-1 cell line, a human leukemia line (ATCC® TIB-202™), was cultured in RPMI-1640 medium supplemented with 10% heat-inactivated fetal bovine serum (FBS), 2 mM. L-Glutamine, 100 IU mL^−1 penicillin/streptomycin, and 20 mM HEPES. The cells were maintained in a humidified incubator at 37 °C with 5% CO2. Subculturing was performed every three days, using 20 mL of media at a concentration of 2 × 10^5 cells per mL in a T75 flask. All cell culture reagents were purchased from Lonza Bioscience (Morrisville, NC).
The cytotoxicity of the compounds on THP-1-derived macrophages was evaluated using the colorimetric MTT assay (3-(4,5-dimethylthiazol-2-yl)-2,5-diphenyltetrazolium bromide), as described in Magoulas et al. (2021).[28] THP-1 cells were suspended in complete RPMI medium at a density of 1 × 10^6 cells per mL, and 100 μL of this suspension was seeded into each well of a 96-well plate. The cells were differentiated into macrophages by adding 40 ng mL^−1 of phorbol-myristate 13-acetate (PMA, Sigma, Saint Louis, MI, USA) for 24 hours, followed by replacement with fresh medium for an additional 24 hours. Subsequently, the cells were incubated with 100 μL of various compounds, diluted in complete RPMI medium, at concentrations ranging from 100 to 12.5 μM. Each condition was tested in triplicate. After 72 hours of incubation at 37 °C with 5% CO2, the medium was removed, and 200 μL of a 0.5 mg mL^−1 MTT solution, diluted in RPMI, was added to each well. The plates were incubated for an additional 4 hours. Following this incubation, 160 μL of the medium was removed and replaced with 160 μL of 2-propanol. Absorbance was measured at 570 nm using a Synergy 2 Multi-Mode Reader (Biotek, Winooski, VT, USA). Cytotoxicity was determined by presenting the CC50 (the concentration of the drug that reduces cell viability by 50%) interval or by calculating the CC50 value through non-linear regression analysis using GraphPad Prism version 8.1.1 for Windows (GraphPad Software, San Diego, CA, USA). The results represent the average of at least three independent experiments.
For orientation: Tetrazolium assays rely on reduction of a dye to a coloured formazan, in cell work by metabolically active cells.

Broadly, the IC50 is the concentration needed to halve the response being measured. For orientation: IC90 means the concentration needed for an effect of 90%. Read a low IC90 as greater potency. In general, CC50 refers to the concentration at which the toxic effect on the cells reaches its halfway point.

Turning to `O=C(Cc1ccc(C23CC4CC(CC(C4)C2)C3)cc1)NCCn1cnc([N+](=O)[O-])n1` [6b, 2-[4-(1-Adamantyl)phenyl]-N-[2-(3-nitro-1H-1,2,4-triazol-1-yl)ethyl]acetamide], the figures for the IC50 in data set [1], in data set [2] and in data set [3] were 200 ± 30 nM, 0.49 µM and 1830 ± 700 nM, respectively. The concentration for an effect of 90% (IC90) in data set [1] amounted to 660 ± 40 nM; in data set [3] it was 4290 ± 310 nM. For the same compound, in data set [4], the CC50 at 72 h fell in the range of 50000 to 100000 nM.

On to `O=C(CCc1ccc(C23CC4CC(CC(C4)C2)C3)cc1)NCCn1cnc([N+](=O)[O-])n1` [6c, 3-[4-(1-Adamantyl)phenyl]-N-[2-(3-nitro-1H-1,2,4-triazol-1-yl)ethyl]propanamide], for which the values for the half-inhibitory concentration (IC50) in data set [1], in data set [2] and in data set [3] were 450 ± 20 nM, 0.42 µM and 1580 ± 70 nM, respectively. Besides, the values for the IC90 in data set [1] and in data set [3] were 1200 ± 20 nM and 3230 ± 850 nM, respectively. Besides, in data set [2] (THP-1 CC50 / L. infantum promastigote IC50), the “SI (promastigotes) CC50/Li IC50” value is given as “SI > 238”. In data set [4], the CC50 at 72 h was more than 100000 nM.

On to `O=C(Cc1ccc(C23CC4CC(CC(C4)C2)C3)cc1)NCCCn1cnc([N+](=O)[O-])n1` [6e, 2-[4-(1-Adamantyl)phenyl]-N-[3-(3-nitro-1H-1,2,4-triazol-1-yl)propyl]acetamide], for which the 50% inhibitory concentration (IC50) amounted to 140 ± 10 nM in data set [1], 0.31 µM in data set [2] and 2480 ± 310 nM in data set [3]. The results for the IC90 in data set [1] and in data set [3] were 270 ± 20 nM and 7080 ± 470 nM, respectively. The half-maximal cytotoxic concentration (CC50) at 72 h in data set [4] fell in the range of 50000 to 100000 nM.
